Laboratory results as given in PubChem BioAssay AID1996.
≈ marks a conversion by molar mass, not a printed value.

details: buffer; pH 7.4; 200.0 µM

| solubility kinetic | SMILES |
| --- | --- |
| > 47.3 µg/mL | CCOc1ccc(CCNC(=O)c2cnccn2)cc1OCC |
| > 33 µg/mL | Cc1ccc(OCc2csc(N)n2)cc1 |
| > 42.4 µg/mL | CCCN(CC(=O)Nc1ccccc1C)C(=O)CCl |
| 1.4 µg/mL (≈ 5.07 µM) | O=C(NC(=S)NCc1ccccc1)c1cccs1 |
| > 41.3 µg/mL | NC(=O)C1(C(N)=O)OC1c1ccc(Cl)c(Cl)c1 (centres undefined) |
| 5.4 µg/mL (≈ 15.2 µM) | Cc1nc(NS(=O)(=O)c2cccc([N+](=O)[O-])c2)sc1C(C)(C)C |
| 40.4 µg/mL (≈ 117 µM) | NC(CCCCCP(=O)(c1ccccc1)c1ccccc1)C(=O)O (centres undefined) |
| > 47.4 µg/mL | O=C(O)CC(c1ccc(Cl)cc1)N1Cc2ccccc2C1=O (centres undefined) |
| > 52.3 µg/mL | Nc1nc(NCCOCCO)nc(NCc2ccccc2)c1[N+](=O)[O-] |
| 25 µg/mL (≈ 113 µM) | OC1CCCN(CC(O)c2ccccc2)C1 (centres undefined) |
| 6.3 µg/mL (≈ 19.1 µM) | Cc1ccccc1NC(=O)c1ccc2c(c1)CCN2S(C)(=O)=O |
| < 0.6 µg/mL | Cc1ccc(C2=N/C(=C\c3cccc(F)c3)C(=O)O2)cc1 |
| 1.1 µg/mL (≈ 3.5 µM) | CSc1ncc(Cl)c(C(=O)Nc2cccc(Cl)c2)n1 |
| 40.9 µg/mL (≈ 115 µM) | S=C(NCc1ccncc1)Nc1ccc(Br)cc1Cl |
| 6 µg/mL (≈ 16.7 µM) | O=C(NC1CCN(C(=O)Nc2ccc(F)cc2)CC1)c1cccc(F)c1 |
| 1.2 µg/mL (≈ 3.82 µM) | CC(NC(=O)/C=C/c1ccccc1[N+](=O)[O-])C1CC2CCC1C2 (centres undefined) |
| 27.7 µg/mL (≈ 92.8 µM) | CCC1(C)Cc2c(sc3[nH]c(=S)[nH]c(=S)c23)CO1 (centres undefined) |
| 0.6 µg/mL (≈ 2.17 µM) | Cc1oncc1-c1csc(-c2ccccc2Cl)n1 |
| 9.3 µg/mL (≈ 28.8 µM) | COc1ccc(-c2onc3ccc(C(=O)/C=C/N(C)C)cc23)cc1 |
| > 46.7 µg/mL | COc1ccc(C(=O)Cn2cc[n+](C)c2)cc1.[Br-] |
| 2.8 µg/mL (≈ 8.13 µM) | O=C(NC1CCN(Cc2ccc3ccccc3c2)CC1)c1ccccc1 |
| < 0.2 µg/mL | O=C1N/C(=N\c2ccccn2)SC1Cc1ccc(Cl)cc1 (centres undefined) |
| > 53.4 µg/mL | O=C(COC(=O)Cc1ccc(Br)cc1)NCC1CCCO1 (centres undefined) |
| 0.4 µg/mL (≈ 1.31 µM) | C/C(=N/OC(=O)C1CC1)c1cc(-c2ccc(Cl)cc2)no1 |

| solubility kinetic | SMILES |
| --- | --- |
| > 46 µg/mL | Cc1ccsc1C(=O)OCc1nc2ccsc2c(=O)[nH]1 |
| 4.2 µg/mL (≈ 11.6 µM) | Cc1cc(C)c2[nH]c(C(=O)Nc3ccc(F)cc3Br)cc2c1 |
| > 48.1 µg/mL | CCOC(=O)C1CCN(c2ccc([N+](=O)[O-])c(C(C)=O)c2)CC1 |
| 4.9 µg/mL (≈ 9.91 µM) | CC1CC(C)(C)CC2(C1)NC(=O)N(CC(=O)N1CCN(S(=O)(=O)c3cccc(F)c3)CC1)C2=O (centres undefined) |
| < 0.2 µg/mL | Cc1cc(NC(=O)c2cccc(C)c2[N+](=O)[O-])no1 |
| > 51.7 µg/mL | CCN(CC(=O)Nc1ccccc1OC)C(=O)CC1CC2CCC1C2 (centres undefined) |
| > 44.1 µg/mL | COc1ccc(/C=N/NC(=O)c2ccc3nc[nH]c3c2)cc1 |
| > 52.1 µg/mL | O=C(NCCOc1ccccc1)C1=CC=CN2CCS(=O)(=O)N=C12 |
| > 50.4 µg/mL | CC(NC(=O)COc1cccnc1[N+](=O)[O-])c1ccc(Cl)cc1 (centres undefined) |
| 16.3 µg/mL (≈ 46.7 µM) | Cc1ccc2nsnc2c1NC(=O)c1cncc(Br)c1 |
| 36.8 µg/mL (≈ 140 µM) | O=C(NCC1CCCO1)c1cc2cc(F)ccc2[nH]1 (centres undefined) |
| > 48.4 µg/mL | COc1cc(CCC(=O)Nc2nccs2)cc(OC)c1OC |
| 1 µg/mL (≈ 3.23 µM) | COc1ccccc1OCCn1c(C)c(C=O)c2ccccc21 |
| > 46.4 µg/mL | O=S(=O)(Nc1ncnc2sccc12)c1cccc(F)c1 |
| 32.8 µg/mL (≈ 97.5 µM) | CCOc1cc(CN2CCc3c([nH]c4ccccc34)C2)ccc1OC |
| 14.9 µg/mL (≈ 41.9 µM) | O=C(c1ccccc1Br)N1CCc2c([nH]c3ccccc23)C1 |
| 22.6 µg/mL (≈ 71 µM) | CCC(C(=O)Nc1nc(C)c(C(=O)OC)s1)c1ccccc1 (centres undefined) |
| 7.5 µg/mL (≈ 25.7 µM) | Cc1c(C(=O)N2CCc3ccccc3C2)oc2ccccc12 |
| > 31.4 µg/mL | O=C(Cc1cccs1)NC1CCCC1 |
| 36.3 µg/mL (≈ 133 µM) | Cc1nc(-c2ccccc2)sc1C(=O)/C=C/N(C)C |
| 19.4 µg/mL (≈ 65.9 µM) | CN(C(=O)COC(=O)c1ccc(C#N)cc1)c1ccccc1 |
| < 0.6 µg/mL | Cc1ccc(C(=O)CCC(=O)Nc2ccccc2C)cc1C |
| 9.4 µg/mL (≈ 26.7 µM) | Nc1ccc(S(=O)(=O)Nc2ccc(C(=O)c3ccccc3)cc2)cc1 |
| 19 µg/mL (≈ 65.2 µM) | O=C1c2ccccc2-c2ccc(C(=O)N3CCCCC3)cc21 |

| solubility kinetic | SMILES |
| --- | --- |
| 46.3 µg/mL (≈ 144 µM) | CCOC(=O)C1CCN(CC(=O)c2ccc(O)c(C)c2O)CC1 |
| 23.6 µg/mL (≈ 66 µM) | COc1ccc(C(=S)N2CCOCC2)cc1OC(=O)c1ccccc1 |
| 47.3 µg/mL (≈ 144 µM) | CS(=O)(=O)N(CC(=O)Nc1ccccc1F)C1CCCCC1 |
| 37.9 µg/mL (≈ 70.2 µM) | CCOc1ccc(S(=O)(=O)Nc2ccc(C(=O)NCC(c3ccc(OC)cc3)N3CCOCC3)cc2)cc1 (centres undefined) |
| 38.6 µg/mL (≈ 105 µM) | Cc1cc(C)c(CN2CCC(CO)(CCOc3ccccc3)CC2)cc1C |
| > 40.5 µg/mL | CC1CN(C(=O)c2ccc([N+](=O)[O-])s2)CC(C)O1 (centres undefined) |
| 6.1 µg/mL (≈ 16.3 µM) | CC1CCC2(CC1)NC(=O)N(CC(=O)NCc1ccc3c(c1)OCO3)C2=O (centres undefined) |
| 34.1 µg/mL (≈ 103 µM) | COc1ccc(NC2c3ccccc3C(=O)N2c2ccccn2)cc1 (centres undefined) |
| 11.2 µg/mL (≈ 30.9 µM) | O=C(Nc1ccccc1C(=O)Nc1ccncc1)c1ccc([N+](=O)[O-])cc1 |
| 18.4 µg/mL (≈ 62.9 µM) | COc1ccc(CNC(=O)c2ccc3ccccc3n2)cc1 |
| > 43.1 µg/mL | O=C(COc1cccnc1[N+](=O)[O-])NCc1ccccc1 |
| 9.6 µg/mL (≈ 28.9 µM) | O=C(NCCCCc1ccccc1)c1cccc(Br)c1 |
| < 0.2 µg/mL | O=[N+]([O-])c1cc(-c2cnc3ccccc3n2)ccc1Cl |
| 8.2 µg/mL (≈ 26.6 µM) | O=C(CSc1ccc([N+](=O)[O-])cc1)NCC1CCCCC1 |
| 30.3 µg/mL (≈ 141 µM) | CN(Cc1ccccc1)C(=O)c1ccco1 |
| < 0.4 µg/mL | COc1ccc(NC(=O)c2cc(-c3ccccc3Cl)on2)cc1 |
| 18.5 µg/mL (≈ 100 µM) | Cc1ccnc(Cc2ccccc2)n1 |
| > 49 µg/mL | CCOc1ccc(CN(C)C(=O)CNC(=O)c2ccccc2)cc1 |
| > 32.2 µg/mL | CCC(C)CCCCNC1=NCCS1 (centres undefined) |
| > 48.3 µg/mL | O=C(O)C1C2CCC(C2)C1C(=O)NCCc1cccc(Cl)c1 (centres undefined) |
| 40.4 µg/mL (≈ 138 µM) | C=CCNc1nc(N)c([N+](=O)[O-])c(N2CCCCCC2)n1 |
| 18.1 µg/mL (≈ 59.1 µM) | COc1ccc(C2NC(=O)NC3=C2CCc2ccccc23)cc1 (centres undefined) |
| > 39.8 µg/mL | COc1cccc(C=O)c1OC(=O)N1CCOCC1 |
| 29.4 µg/mL (≈ 134 µM) | CN1CCC(NC(=O)c2ccncc2)CC1 |

| solubility kinetic | SMILES |
| --- | --- |
| 39.6 µg/mL (≈ 131 µM) | O=C(OCC(=O)N1CCCC1)c1c(Cl)cccc1Cl |
| 37.2 µg/mL (≈ 147 µM) | Cc1ccc2c(NC(=O)c3ccco3)cccc2n1 |
| 34.2 µg/mL (≈ 70.9 µM) | COc1cc(NC(=O)COC(=O)c2cc(S(=O)(=O)N3CCOCC3)ccc2F)cc(OC)c1 |
| > 45.5 µg/mL | O=C(CNC(=O)c1ccccc1)OCC(=O)c1cccs1 |
| > 41.6 µg/mL | CCOc1cc(C=O)ccc1OCC(=O)N1CCCC1 |
| 36.9 µg/mL (≈ 145 µM) | Cc1c(/C=C2\NC(=O)NC2=O)c2ccccc2n1C |
| 38.7 µg/mL (≈ 140 µM) | O=C(c1ccco1)N1CCN(C(=O)N2CCCC2)CC1 |
| 42.4 µg/mL (≈ 126 µM) | Cc1cccc(NC(=O)CN(c2ccc(F)cc2)S(C)(=O)=O)c1 |
| 40.6 µg/mL (≈ 125 µM) | O=C(NC(=S)NC1CCSC1=O)c1ccc([N+](=O)[O-])cc1 (centres undefined) |
| 25.9 µg/mL (≈ 78 µM) | Cc1cc(C(=O)Nc2c(F)cc(F)cc2Br)cs1 |
| > 38 µg/mL | Cc1onc(C(=O)NC2CCCCC2)c1[N+](=O)[O-] |
| 4.1 µg/mL (≈ 11 µM) | COc1ccc(NC(=O)COC(=O)Cc2c[nH]c3ccccc23)cc1Cl |
| > 40.4 µg/mL | COc1ccc(S(=O)(=O)N2CCCCC2C)cc1 (centres undefined) |
| 28.4 µg/mL (≈ 97.7 µM) | S=C(NCc1ccccc1)NCc1ccccc1Cl |
| > 44.5 µg/mL | CCN(CC(=O)NC1CC1)S(=O)(=O)c1ccc(C)cc1 |
| 20.1 µg/mL (≈ 64.3 µM) | O=[N+]([O-])c1ccccc1S(=O)(=O)NC1CCCCCCC1 |
| 5.9 µg/mL | Cc1cc(C)nc(Nc2cccc(Cl)c2)n1.Cl |
| > 42.9 µg/mL | O=C(O)c1cc([N+](=O)[O-])ccc1NCCc1ccccc1 |
| 6.3 µg/mL (≈ 17.1 µM) | COc1ccccc1/C=C/C(=O)OCC(=O)NCc1ccc2c(c1)OCO2 |
| 29.3 µg/mL (≈ 104 µM) | Cc1c(Cl)cccc1NC(=S)N1CCCCCC1 |
| 6.3 µg/mL (≈ 18.5 µM) | Cc1cc(C(=O)OCC(=O)NC2CCCCC2C)c2ccccc2n1 (centres undefined) |
| 9.4 µg/mL (≈ 32.8 µM) | Cc1c(C(=O)Nc2ccccn2)oc2c(Cl)cccc12 |
| > 52.7 µg/mL | O=C(Nc1cc2c(cc1Br)OCCO2)c1ccc(=O)[nH]c1 |
| 0.7 µg/mL (≈ 1.77 µM) | O=C(Nc1ccccc1C(=O)Nc1ccccc1)c1ccccc1Br |

| solubility kinetic | SMILES |
| --- | --- |
| > 48.7 µg/mL | O=C(c1ccccc1)C(C(=O)N1CCCCC1)n1ccccc1=O (centres undefined) |
| 4.3 µg/mL (≈ 14 µM) | CCC1C(=O)C(CC)C(c2ccccc2)NC1c1ccccc1 (centres undefined) |
| < 0.3 µg/mL | COc1ccc(Sc2nc(-c3ccccc3)ncc2OC)cc1 |
| > 40.7 µg/mL | CC(=O)Nc1ccc(NC(=O)c2cc[n+]([O-])cc2)cc1 |
| > 48.6 µg/mL | Cc1nc(C(F)(F)F)ccc1C(=O)NCC(O)c1ccccc1 (centres undefined) |
| 6.7 µg/mL (≈ 13.5 µM) | O=C(CCc1ccc(S(=O)(=O)N2CCOCC2)cc1)OCC(=O)c1ccc(Br)cc1 |
| 17.4 µg/mL (≈ 61.8 µM) | Oc1ccc(-c2ccccc2)cc1CN1CCCCCC1 |
| 44.9 µg/mL (≈ 150 µM) | O=C(O)c1ccccc1C(=O)NCc1ccc2c(c1)OCO2 |
| 46.2 µg/mL (≈ 148 µM) | Cc1ccc2cccc(OCC(=O)N3CC(C)CC(C)C3)c2n1 (centres undefined) |
| 20.6 µg/mL (≈ 49 µM) | CC(NC(=O)COC(=O)C12CC3CC(CC(Br)(C3)C1)C2)c1ccccc1 (centres undefined) |
| > 42.7 µg/mL | Cl.O=C(CCN1CCOCC1)NCc1ccccc1 |
| 50.5 µg/mL (≈ 140 µM) | O=C(Cc1c(F)cccc1Cl)NC1CCN(Cc2ccccc2)CC1 |
| > 43.2 µg/mL | O=S(=O)(NCc1cccs1)c1ccccc1Cl |
| > 40.4 µg/mL | CCN(/C(N)=N/c1nc(C)cc(C)n1)c1ccccc1 |
| > 54.9 µg/mL | C=CCN(CC(=O)Nc1cccnc1)S(=O)(=O)c1ccc(Cl)cc1 |
| > 51.1 µg/mL | CCOc1ccc(S(=O)(=O)N(CC)CC(=O)N2CCCC2)cc1 |
| 15.1 µg/mL (≈ 42.1 µM) | NC(=O)c1ccc(NC(=O)COC(=O)CCSc2ccccc2)cc1 |
| > 44 µg/mL | Cc1ccc(C(=O)Nn2cnc3ccccc3c2=O)cc1C |
| > 42.5 µg/mL | O=C(O)C1CCN(C(=O)c2cccc3ccccc23)CC1 |
| 15 µg/mL (≈ 36.5 µM) | CNS(=O)(=O)c1cccc(C(=O)OCC(=O)Nc2nc(OC)cc(OC)n2)c1 |

| SMILES | solubility kinetic |
| --- | --- |
| COc1ccccc1-n1c(-c2ccc(C)cc2)nc2ccccc2c1=O | 3.3 µg/mL (≈ 9.64 µM) |
| CC(=O)N(C1=NCCCS1)c1ccccc1Cl | > 40.3 µg/mL |
| CC1(C)Cc2c(C#N)c(N3CCNCC3)nc(-c3ccco3)c2CS1 | 21.5 µg/mL (≈ 60.7 µM) |
